Data reported in PMC10815578 (International Journal of Molecular Sciences, 2024).
Values joined by “and” are separate entries in the source; they are usually repeats but may differ in a detail not shown here. Identical values can stand only once. Like-named read-outs stand apart in the source and are kept apart here.

Experiments:
OATP2B1 = conditions: Supplementary table, ref previous reports (superscript numbers), cited from earlier work; for IC50: read-out: OATP2B1 IC50; for Ki: read-out: OATP2B1 Ki (asterisk)
OATP4C1 [1] = target: T1, OATP4C1 (Homo sapiens, UniProt Q6ZQN7); test: Inhibition of OATP4C1-mediated T3 uptake in OATP4C1/MDCKII cells; conditions: for inhibition at 10 min, 100 µM: human; for alteration of OATP4C1-mediated transport (in words): 100 µM (theaflavin 50 µM); for Ki: Ki for OATP4C1 (average)
T1 sequence (Q6ZQN7 1-724): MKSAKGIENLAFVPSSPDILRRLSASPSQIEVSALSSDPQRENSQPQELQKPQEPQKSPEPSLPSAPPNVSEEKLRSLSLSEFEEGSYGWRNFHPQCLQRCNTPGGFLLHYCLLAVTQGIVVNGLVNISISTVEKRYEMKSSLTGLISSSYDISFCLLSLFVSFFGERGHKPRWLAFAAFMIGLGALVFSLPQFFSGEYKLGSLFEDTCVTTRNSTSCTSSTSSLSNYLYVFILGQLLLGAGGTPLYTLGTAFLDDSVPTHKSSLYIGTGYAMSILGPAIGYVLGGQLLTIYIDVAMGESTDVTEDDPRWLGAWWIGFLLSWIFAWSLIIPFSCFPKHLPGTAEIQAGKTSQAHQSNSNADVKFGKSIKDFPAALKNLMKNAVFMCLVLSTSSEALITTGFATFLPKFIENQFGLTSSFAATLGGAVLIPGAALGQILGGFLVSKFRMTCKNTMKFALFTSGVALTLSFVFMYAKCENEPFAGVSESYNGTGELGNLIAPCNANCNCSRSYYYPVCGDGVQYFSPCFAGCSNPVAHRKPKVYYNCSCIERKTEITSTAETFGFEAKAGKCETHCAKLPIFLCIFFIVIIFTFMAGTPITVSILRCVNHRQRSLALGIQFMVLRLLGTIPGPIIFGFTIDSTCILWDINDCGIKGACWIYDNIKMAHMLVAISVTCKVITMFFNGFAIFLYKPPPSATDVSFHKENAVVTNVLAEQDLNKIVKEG
Method: Figure 3 Screening of the effect of food ingredients on OATP4C1-mediated transport. Cells were incubated with 1 µM T3 with or without food ingredients for 10 min at 37 °C. The concentration of the compounds was 100 µM, except for theaflavin (50 µM). The amount of OATP4C1-mediated uptake was calculated by subtracting the nonspecific uptake of T3 by mock cells from the total cellular uptake by OATP4C1-expressing cells. […] Dashed line represents 100% (control uptake in the absence of food ingredient).
The MDCKII cells transfected with OATP4C1 or an empty vector were established in our laboratory [18].
The cellular uptake of T3 was measured in monolayer cell cultures grown in 24-well plates. Cells were seeded at a density of 2.0 × 10^5 cells/well. Thereafter, the cells were incubated in a culture medium containing 5 mM sodium butyrate for 24 h before the uptake study. […] Cellular uptake was initiated by adding T3-containing KH buffer with or without each flavonoid. Uptake was terminated after 10 min by replacing the incubation buffer with ice-cold KH buffer. The cells were washed twice with ice-cold KH buffer. The concentration of T3 was measured using liquid chromatography/tandem mass spectrometry (LC/MS/MS). Cellular uptake was presented as the uptake amount divided by the amount of cellular protein quantified using the Bradford protein assay. The experiment was performed in triplicate (n = 3) and repeated three times. Flavonoids, except ellagic acid, were dissolved in dimethyl sulfoxide (DMSO) at a final concentration of less than 0.5%. A stock solution of ellagic acid (20 mM) was obtained by dissolving it in 0.05 M NaOH and was further diluted to 100 µM in KH buffer (the pH was adjusted to 7.4).
The experiment was performed in triplicate (n = 3) and repeated three times.

OAT1 = conditions: Supplementary table; ref previous reports (superscript numbers); cited from earlier work
OAT3 = conditions: Supplementary table; ref previous reports (superscript numbers); cited from earlier work
OATP1B3 = conditions: Supplementary table, ref previous reports (superscript numbers), cited from earlier work; for IC50: read-out: OATP1B3 IC50; for Ki: read-out: OATP1B3 Ki (asterisk)
OATP1B1 = conditions: Supplementary table, ref previous reports (superscript numbers), cited from earlier work; for IC50: read-out: OATP1B1 IC50; for Ki: read-out: OATP1B1 Ki (asterisk)
OATP4C1 [2] = target: T1, OATP4C1; test: Kinetic analysis of OATP4C1-mediated T3 uptake in the presence of inhibitors; type: cell-based; set-up: expressed in transfected cells; sodium butyrate induction before uptake
Method: Data are shown as the mean ± SE (n = 6). The kinetic curves were fitted to the Michaelis–Menten equation. […] Each curve represents the fitted line obtained by the kinetic analysis by JMP Pro 16.
The kinetic curves were fitted to the Michaelis–Menten equation. […] The experiment was performed in duplicate (n = 2) and repeated three times.

P-gp = conditions: Supplementary table; ref 40 of the supplement; cited from earlier work
[3] = pH 7.4, probe T3 (1 µM), OATP4C1 inhibition degree, 100 µM, Supplementary table
[4] = pH 7.4, probe T3 (1 µM), inhibition of OATP4C1-mediated transport, 100 µM compound, 1 µM T3, 10 min, 37 °C, without AA

| SMILES | IC50 (OATP2B1) | inhibition at 10 min, 100 µM (OATP4C1 [1]; [3]) [%] | inhibition at 10 min, 100 µM (OATP4C1 [1]; [4]) [%] | OATP4C1 inhibition or elevation (class) (OATP4C1 [1]; Supplementary table) | inhibitory effect on OATP4C1-mediated transport in the presence of AA compared with its absence (OATP4C1 [1]; 100 µM compound, 10 µM AA) | IC50 (OATP1B3) [µM] | also measured |
| --- | --- | --- | --- | --- | --- | --- | --- |
| O=c1c(-c2ccc(O)cc2)coc2cc(O)ccc12 [daidzein] | 22.3 µM and 20.7 µM | 40 | 40 |  |  |  | OATP4C1 inhibition or elevation (class) (OATP4C1 [1]): Yes; inhibitory effect on OATP4C1-mediated transport in the presence of AA compared with its absence (OATP4C1 [1]): weakened |
| O=c1oc2c(O)c(O)cc3c(=O)oc4c(O)c(O)cc1c4c23 [ellagic acid] |  |  |  | Elevation |  |  | alteration of OATP4C1-mediated transport (in words) (OATP4C1 [1]; 1 µM T3, 10 min, without AA): did not inhibit; elevation of OATP4C1-mediated transport (OATP4C1 [1]; 100 µM compound, 1 µM T3, 10 min, 37 °C, without AA): 13%; OATP4C1 elevation degree (OATP4C1 [1]; 100 µM, Supplementary table): 13%; IC50 (OAT1): 0.207 µM |
| COc1cc(/C=C/C(=O)O)ccc1O [ferulic acid, Ferulic acid] |  |  |  | No |  |  | IC50 (OAT3): 7.35 ± 3.73 µM; alteration of OATP4C1-mediated transport (in words) (OATP4C1 [1]; 1 µM T3, 10 min, without AA): did not inhibit; IC50 (OAT1): 9.01 µM |
| O=c1c(O)c(-c2ccc(O)c(O)c2)oc2cc(O)ccc12 [fisetin] |  |  | 24 | No | weakened |  |  |
| O=C(O)c1cc(O)c(O)c(O)c1 [gallic acid, Gallic acid] |  |  |  |  |  | 1.6 ± 0.6 |  |
| O=c1c(-c2ccc(O)cc2)coc2cc(O)cc(O)c12 [genistein] |  |  |  | Yes | weakened |  | IC50 (OATP1B1): 14.9 ± 3.76 µM; inhibition at 10 min, 100 µM (OATP4C1 [1]; pH 7.4): 42% |
| COc1cc(-c2oc3cc(O)cc(O)c3c(=O)c2O)ccc1O [isorhamnetin] | 0.82 µM |  |  | Yes | weakened | 3.1 | inhibition at 10 min, 100 µM (OATP4C1 [1]; pH 7.4): 18% |
| O=c1c(O)c(-c2ccc(O)cc2)oc2cc(O)cc(O)c12 [kaempferol] | 20.7 ± 1.8 µM |  |  |  |  |  | Ki (OATP2B1): 15.1 ± 7.8 µM; Ki (OATP1B3): 24.4 ± 1.8 µM; IC50 (OATP1B1): 32.4 µM and 33 µM; Ki (OATP1B1): 16 ± 1.9 µM; IC50 (OATP4C1 [1]; IC50 for OATP4C1, AA(+) 10 µM, 1 µM T3, 10 min): 33.7 µM; IC50 (OATP4C1 [1]; IC50 for OATP4C1, AA(−), 1 µM T3, 10 min): 29.3 µM; Ki (OATP4C1 [1]; AA(+) 10 µM, 1 µM T3, 10 min): 28.8 µM; Ki (OATP4C1 [1]; AA(−), 1 µM T3, 10 min): 25.1 µM; Vmax of OATP4C1-mediated T3 uptake in the presence of the inhibitor (OATP4C1 [2]; inhibitor 30 µM, 10 µM AA, 10 min, 37 °C): 517 ± 92.6 pmol/mg Protein/10 min; manner of inhibition of OATP4C1-mediated T3 uptake (OATP4C1 [2]; kinetic analysis): competitive manner |
| O=c1cc(-c2ccc(O)c(O)c2)oc2cc(O)cc(O)c12 [luteolin] | 0.42 µM | 52 | ≥ 50 | Yes | weakened |  | IC50 (OAT3): 4.2 µM |
| O=c1c(O)c(-c2ccc(O)cc2O)oc2cc(O)cc(O)c12 [morin] |  | 57 | ≥ 50 | Yes | weakened |  | IC50 (OAT1): < 0.3 µM and 0.5 µM |
| O=c1c(O)c(-c2ccc(O)c(O)c2)oc2cc(O)cc(O)c12 [quercetin] |  | 50 | ≥ 50 | Yes | weakened | 3.22 | Ki (OATP2B1): 8.7 ± 0.1 µM; Ki (OATP1B3): 7.8 ± 1.7 µM; Ki (OATP1B1): 8.8 ± 0.8 µM |
| Oc1ccc(/C=C/c2cc(O)cc(O)c2)cc1 [resveratrol, Resveratrol] | 8.3 µM | 46 | 46 |  |  | 11.6 | IC50 (P-gp): 6.64 µM; IC50 (OATP1B1): 9.1 µM |
